Data published in PMC6733655 (Biochemical pharmacology, 2019).
Where “and” joins values, the source holds several entries; their conditions need not be identical. Equal entries are not always repeated. Entries after “also recorded” stand apart in the source; their conditions may differ. Where two headings read alike, the source gives them in different places. Values belong to the compound of their own block, whether it stands above or below them.

Legend:
[1] = test system: ENT1 and ENT2; type: in vivo, C57BL/6 mice; details: 5 μM [14C]-gemcitabine, 90 min perfusion, 2 mM dilazep
[2] = test system: nucleoside transporters (CNT1, CNT3, ENT1, ENT2); experiment: Inhibition; type: in vivo, C57BL/6 mice
[3] = cited from earlier work
[4] = test system: hCNT1; details: read-out: Km for gemcitabine transport; Xenopus laevis oocytes; cited from earlier work
[5] = test system: hCNT3; details: read-out: Km for gemcitabine transport; Xenopus laevis oocytes; cited from earlier work
[6] = mice, cited from earlier work
[7] = test system: hENT2; details: read-out: Km for gemcitabine transport; Xenopus laevis oocytes; cited from earlier work
[8] = In situ single-pass jejunal perfusion of gemcitabine; type: in vivo, C57BL/6 mice; details: for Papp at 90 min, 100 μM: pH 6, effective permeability (Peff)
[9] = test system: hENT1; details: read-out: Km for gemcitabine transport; Xenopus laevis oocytes; cited from earlier work
[10] = In situ single-pass jejunal perfusion of gemcitabine; type: in vivo, BALB/c mice; details: female, BALB/c, mouse, other: in situ single-pass jejunal perfusion, pH 6
[11] = 100 μM gemcitabine, female BALB/c mice, corrected for cytosine; cited from earlier work
[12] = 5 μM gemcitabine co-perfused with 2 mM inhibitor, sodium-containing buffer
[13] = from intrinsic clearance Vmax/Km, linear conditions
[14] = jejunal flux, 0.5 μM to 2 mM, fit to two Michaelis-Menten terms

Compound: COc1cc(C(=O)OCCCN2CCCN(CCCOC(=O)c3cc(OC)c(OC)c(OC)c3)CC2)cc(OC)c1OC [dilazep]
effect on total gemcitabine radioactivity in intestinal (jejunal) tissue [1]: not altered; also recorded: no change
total gemcitabine radioactivity in portal venous plasma, % control [1]: 32.5%
reduction of jejunal permeability of gemcitabine [2, 12]: about 50%
residual permeability of gemcitabine [2, 12]: 50.2%

Compound: CC1=C(C(=O)O)N2C(=O)[C@@H](NC(=O)[C@H](N)c3ccc(O)cc3)[C@H]2SC1 [cefadroxil]
in situ jejunal permeability (Peff) [3]: 0.6-0.8 × 10^−4 cm/s

Compound: glycylsarcosine
in situ jejunal permeability (Peff) ([3]; mouse): 0.00017 cm/s

Compound: CC(C)[C@H](N)C(=O)OCCOCn1cnc2c(=O)[nH]c(N)nc21 [valacyclovir]
in situ jejunal permeability (Peff) [3]: 9e-05 cm/s

effective permeability (Peff) ([8]; 100 μM gemcitabine, jejunum, C57BL/6 mice, analyzed by UPLC): 110 ×10⁻⁶ cm/s
Papp at 90 min, 100 μM ([8]; both, C57BL/6, mouse, other: in situ single-pass jejunal perfusion, 100 μM [14C]-gemcitabine, jejunum, C57BL/6 mice, analyzed by radioactivity): 105 ×10⁻⁶ cm/s
Papp at 90 min, 100 μM ([8]; both, C57BL/6, mouse, other: in situ single-pass jejunal perfusion, 100 μM gemcitabine, jejunum, C57BL/6 mice, analyzed by UPLC): 114 ×10⁻⁶ cm/s
Papp at 90 min, 5 μM ([8]; both, C57BL/6, mouse, other: in situ single-pass jejunal perfusion, pH 6, in situ jejunal permeability, 5 μM gemcitabine, C57BL/6 mice): 150 to 190 ×10⁻⁶ cm/s
predicted contribution of the high-affinity transport system to uptake [8, 13]: 72%
predicted contribution of the low-affinity transport system to uptake [8, 13]: 28%
Km ([8]; read-out: Km,1 (high-affinity, low-capacity transport system), jejunal flux, 0.5 μM to 2 mM, fit to two Michaelis-Menten terms): 27.4 ± 13.9 µM
Km ([8]; read-out: Km,2 (low-affinity, high-capacity transport system), jejunal flux, 0.5 μM to 2 mM, fit to two Michaelis-Menten terms): 700 ± 330 µM
Papp at 90 min, 100 μM [10]: 109 ± 13 ×10⁻⁶ cm/s
jejunal uptake mediated by nucleoside transporters ([2]; C57BL/6 mice): ~ 95%
Compound: Nc1ccn([C@@H]2O[C@H](CO)[C@@H](O)C2(F)F)c(=O)n1 [gemcitabine, 2′,2′-difluoro-2′-deoxycytidine]
Km [4]: ~25 µM
Km [5]: ~60 µM
oral bioavailability ([6]; gemcitabine alone): 10%
oral bioavailability ([6]; with tetrahydrouridine (cytidine deaminase inhibitor)): 40%
Km [7]: ~750 µM
Vmax,1 (high-affinity, low-capacity transport system) [8, 14]: 3.6 pmol/cm^2/s and 3.6 ± 2.1 pmol/cm^2/s
Vmax,2 (low-affinity, high-capacity transport system) [8, 14]: 35.9 pmol/cm^2/s and 35.9 ± 5.5 pmol/cm^2/s
Km [9]: ~160 µM
Peff [11]: 2 ×10⁻⁶ cm/s
residual permeability of gemcitabine ([2]; 5 μM gemcitabine in sodium-free buffer (inhibits CNT1 and CNT3)): 31.7%

Compound: NCC(=O)CCC(=O)O [5-aminolevulinic acid]
in situ jejunal permeability (Peff) [3]: 0.00019 cm/s

Compound: Cc1cn([C@H]2C[C@H](O)[C@@H](CO)O2)c(=O)[nH]c1=O [thymidine]
reduction of jejunal permeability of gemcitabine [2, 12]: about 95%
residual permeability of gemcitabine [2, 12]: 4.6%

cytosine in outlet samples ([8]; perfusion of 100 μM gemcitabine, C57BL/6 and BALB/c mice): absent
Compound: Nc1cc[nH]c(=O)n1 [Cytosine, cytosine]
